{
  "source": "paper PMC7696216",
  "about": "“Bi-Functional Alginate Oligosaccharide–Polymyxin Conjugates for Improved Treatment of Multidrug-Resistant Gram-Negative Bacterial Infections” (Pharmaceutics, 2020)",
  "key": {"E. coli NCTC 10418": {"tested_on": "E. coli NCTC 10418", "format": "cell-based, Escherichia coli", "settings": "SI = IC50 (µg/mL, HK-2)/MIC (µg/mL)", "procedure": "(§1) The minimum inhibitory concentration (MIC) of colistin (as sulphate salt) and polymyxin B and their conjugates was determined using the broth microdilution method in MH broth in accordance with standard guidelines. Test organisms were suspended in MH broth (100 µL, 5 × 10^5 colony forming units (CFU)/mL) and incubated in 96-well microtitre plates in serial two-fold dilutions of the test compounds. […] Results were expressed as mode (n = 3). […] Selective activities of the polymyxins and OligoG–polymyxin conjugates were calculated as follows:Selectivity index (SI) = IC50 (μg/mL)/MIC (μg/mL)."}, "P. aeruginosa NCTC 10662": {"tested_on": "P. aeruginosa NCTC 10662", "format": "cell-based, Pseudomonas aeruginosa", "settings": "SI = IC50 (µg/mL, HK-2)/MIC (µg/mL)", "procedure": "as §1"}, "A. baumannii 7789": {"tested_on": "A. baumannii 7789", "format": "cell-based, Acinetobacter baumannii", "procedure": "as §1\n(§2) In addition, alginate oligomer–colistin conjugates (3 mg/mL) were incubated in PBS at pH 7 containing bacterial alginate lyase (1 and 10 U/mL) at 37 °C for 24 h, before preparing microtitre plates as described above.\n(§3) To study the antimicrobial efficacy of test compounds under more clinically relevant conditions, the MIC protocol was performed using AS medium instead of MH broth. The plates were incubated with resazurin as described above."}, "P. aeruginosa R22": {"tested_on": "P. aeruginosa R22", "format": "cell-based, Pseudomonas aeruginosa", "settings": "for MIC: resazurin read-out", "procedure": "as §1\n(§4) To account for turbidity caused by mucin, resazurin dye solution (30 µL, 0.01% w/v in dH2O) was added to each well and incubated for a further 3 h at 37 °C. Colour changes were observed and recorded."}, "[1]": {"tested_on": "range of Gram-negative bacterial pathogens", "assay": "MIC and selectivity index across the panel of isolates", "format": "cell-based", "settings": "mean SI over the isolates of Table S4", "procedure": "as §1"}, "P. aeruginosa MDR 301": {"tested_on": "P. aeruginosa MDR 301", "format": "cell-based, Pseudomonas aeruginosa", "procedure": "as §1, §2, §3"}, "K. pneumoniae IR25": {"tested_on": "K. pneumoniae IR25", "format": "cell-based, Klebsiella pneumoniae", "settings": "for MIC: resazurin read-out", "procedure": "as §1, §4"}, "E. coli 5702": {"tested_on": "E. coli 5702", "assay": "MIC, broth microdilution", "format": "cell-based, Escherichia coli", "procedure": "as §1, §3"}, "E. coli AIM-1": {"tested_on": "E. coli AIM-1", "assay": "MIC, broth microdilution", "format": "cell-based, Escherichia coli", "settings": "broth microdilution, MH broth, 5 × 10^5 CFU/mL, 16–20 h, mode (n = 3)", "procedure": "as §1, §2"}, "E. coli IR57": {"tested_on": "E. coli IR57", "format": "cell-based, Escherichia coli", "procedure": "as §1, §4, §3"}, "P. aeruginosa NH57388A": {"tested_on": "P. aeruginosa NH57388A", "assay": "MIC, broth microdilution", "format": "cell-based, Pseudomonas aeruginosa", "procedure": "as §1, §3"}, "[2]": {"settings": "cited from earlier work", "procedure": "In a clinical setting, binding of colistin to sputum biomolecules (e.g., mucin) in the airways could negatively impact antibiotic effectiveness and availability. […] A four-fold increase in the MIC of colistin was also reported when the assay was conducted in AS medium instead of MH broth, thought to be caused by bacterial growth disruption, structural modifications of lipopolysaccharides or direct colistin–mucin interactions. Alt ..."}, "MTT cytotoxicity assay": {"assay": "MTT cytotoxicity assay", "format": "cell-based", "settings": "human, HK-2 cells, 72 h incubation, 0–1 mg/mL polymyxin base, ±SEM (n = 18), read-out: Half maximal inhibitory concentration (IC50), cytotoxicity", "protocol": "A 3-(4,5-dimethylthiazol-2-yl)-2,5-diphenyltetrazolium bromide (MTT) assay was used to measure cell viability and proliferation of HK-2 cells. Cells were seeded into sterile 96-well microtitre plates at 1 × 10^5 cells/mL (100 µL/well) and allowed to adhere for 24 h at 37 °C. The following day, the old medium was replaced with test compounds (0–1 mg/mL polymyxin base) dissolved in filter-sterilised K-SFM. After 67 h incubation at 37 °C, filter-sterilised MTT solution (20 µL of a 5 mg/mL solution in PBS) was added to each well and incubated for a further 5 h at 37 °C. Finally, the medium was carefully removed, and the formazan crystals were solubilised in DMSO (100 µL) for 30 min. Absorbance was measured at 550 nm using a Fluostar Omega microplate reader. […] Data are expressed as mean ± SEM (n = 18)."}, "E. coli PN21": {"tested_on": "E. coli PN21", "assay": "MIC, broth microdilution", "format": "cell-based, Escherichia coli", "settings": "SI = IC50 (µg/mL, HK-2)/MIC (µg/mL)", "procedure": "as §1"}, "A. baumannii MDR ACB": {"tested_on": "A. baumannii MDR ACB", "format": "cell-based, Acinetobacter baumannii", "settings": "for MIC: resazurin read-out", "procedure": "as §1, §4"}, "K. pneumoniae KP05 506": {"tested_on": "K. pneumoniae KP05 506", "format": "cell-based, Klebsiella pneumoniae", "procedure": "as §1, §2, §3"}, "[3]": {"settings": "AS (artificial sputum) medium, resazurin read-out"}, "[4]": {"settings": "MH broth (Table S7 comparison with AS medium)"}, "[5]": {"settings": "MH broth + porcine stomach (type II) mucin 0.2% w/v"}, "[6]": {"settings": "MH broth + porcine stomach (type II) mucin 2% w/v"}},
  "note": "Where two headings read alike, the source gives them in different places. Positions of bridges follow the written chain, without caps; N, C: chain ends. Non-standard residues stand in square brackets, D forms with d. Residues, ends and D or L forms follow the SMILES beside them. *: point of attachment. X1 = CC[C@H](C)CCCCC(=O)*; Dab = NCC[C@H](N)C(=O)O",
  "data": [
    {"smiles": "CC[C@H](C)CCCCC(=O)N[C@@H](CCN)C(=O)N[C@H](C(=O)N[C@@H](CCN)C(=O)N[C@H]1CCNC(=O)[C@H]([C@@H](C)O)NC(=O)[C@H](CCN)NC(=O)[C@H](CCN)NC(=O)[C@H](CC(C)C)NC(=O)[C@@H](Cc2ccccc2)NC(=O)[C@H](CCN)NC1=O)[C@@H](C)O", "note": "[Polymyxin B, polymyxin B] (X1-[Dab]T[Dab][Dab][Dab][dF]L[Dab][Dab]T; lactam 4-C (inferred); N-terminus assumed)", "values": [
      {"measurement": "Selectivity index (SI) value", "setting": "E. coli NCTC 10418", "value": 1},
      {"measurement": "Selectivity index (SI) value", "setting": "P. aeruginosa NCTC 10662", "value": 175},
      {"measurement": "MIC", "setting": "A. baumannii 7789; [3]", "value": 0.5, "unit": "μg/mL Drug Base"},
      {"measurement": "MIC", "setting": "A. baumannii 7789; [4]", "value": 0.125, "unit": "μg/mL Drug Base"},
      {"measurement": "Selectivity index (SI) value", "setting": "A. baumannii 7789; SI = IC50 (µg/mL, HK-2)/MIC (µg/mL), A. baumannii 7789", "value": 88},
      {"measurement": "MIC", "setting": "P. aeruginosa R22; [5]", "value": 4, "unit": "μg/mL Drug Base"},
      {"measurement": "MIC", "setting": "P. aeruginosa R22; [6]", "value": 64, "unit": "μg/mL Drug Base"},
      {"measurement": "MIC", "setting": "P. aeruginosa R22; MH broth, mucin 0%", "value": 0.25, "unit": "μg/mL Drug Base"},
      {"measurement": "Selectivity index (SI) value", "setting": "P. aeruginosa R22; SI = IC50 (µg/mL, HK-2)/MIC (µg/mL), P. aeruginosa R22", "value": 44},
      {"measurement": "Selectivity index (SI) value, Mean", "setting": "[1]", "value": 66},
      {"measurement": "MIC", "setting": "P. aeruginosa MDR 301; [3]", "value": 4, "unit": "μg/mL Drug Base"},
      {"measurement": "MIC", "setting": "P. aeruginosa MDR 301; [4]", "value": 0.5, "unit": "μg/mL Drug Base"},
      {"measurement": "Selectivity index (SI) value", "setting": "P. aeruginosa MDR 301; SI = IC50 (µg/mL, HK-2)/MIC (µg/mL), P. aeruginosa MDR 301", "value": 22},
      {"measurement": "MIC", "setting": "K. pneumoniae IR25; [5]", "value": 4, "unit": "μg/mL Drug Base"},
      {"measurement": "MIC", "setting": "K. pneumoniae IR25; [6]", "value": 64, "unit": "μg/mL Drug Base"},
      {"measurement": "MIC", "setting": "K. pneumoniae IR25; MH broth, mucin 0%", "value": 0.125, "unit": "μg/mL Drug Base"},
      {"measurement": "Selectivity index (SI) value", "setting": "K. pneumoniae IR25; SI = IC50 (µg/mL, HK-2)/MIC (µg/mL), K. pneumoniae IR25", "value": 88},
      {"measurement": "MIC", "setting": "E. coli 5702; [3]", "value": 0.25, "unit": "μg/mL Drug Base"},
      {"measurement": "MIC", "setting": "E. coli 5702; [4]", "value": 0.063, "unit": "μg/mL Drug Base"},
      {"measurement": "MIC", "setting": "E. coli AIM-1", "value": "<0.004", "unit": "μg/mL Drug Base"},
      {"measurement": "MIC", "setting": "E. coli IR57; [3]", "value": 0.125, "unit": "μg/mL Drug Base"},
      {"measurement": "MIC", "setting": "E. coli IR57; [4]", "value": 0.5, "unit": "μg/mL Drug Base"},
      {"measurement": "MIC", "setting": "E. coli IR57; MH broth + porcine stomach (type II) mucin 0.2% w/v, resazurin read-out", "value": 1, "unit": "μg/mL Drug Base"},
      {"measurement": "MIC", "setting": "E. coli IR57; MH broth + porcine stomach (type II) mucin 2% w/v, resazurin read-out", "value": 4, "unit": "μg/mL Drug Base"},
      {"measurement": "MIC", "setting": "E. coli IR57; MH broth, mucin 0%, resazurin read-out", "value": 0.5, "unit": "μg/mL Drug Base"},
      {"measurement": "MIC", "setting": "P. aeruginosa NH57388A; [3]", "value": 1, "unit": "μg/mL Drug Base"},
      {"measurement": "MIC", "setting": "P. aeruginosa NH57388A; [4]", "value": 0.25, "unit": "μg/mL Drug Base"},
      {"measurement": "Selectivity index (SI) value", "setting": "P. aeruginosa NH57388A; SI = IC50 (µg/mL, HK-2)/MIC (µg/mL), P. aeruginosa NH57388A", "value": 44},
      {"measurement": "increase in MIC values when mucin was added to the bacterial culture medium", "setting": "[2]", "value": "> 100", "unit": "fold"},
      {"measurement": "IC50 at 72 h", "setting": "MTT cytotoxicity assay", "value": 11, "unit": "µg/mL"},
      {"measurement": "Selectivity index (SI) value", "setting": "E. coli PN21", "value": 3},
      {"measurement": "MIC", "setting": "A. baumannii MDR ACB; [5]", "value": 1, "unit": "μg/mL Drug Base"},
      {"measurement": "MIC", "setting": "A. baumannii MDR ACB; [6]", "value": 16, "unit": "μg/mL Drug Base"},
      {"measurement": "MIC", "setting": "A. baumannii MDR ACB; MH broth, mucin 0%", "value": 0.125, "unit": "μg/mL Drug Base"},
      {"measurement": "Selectivity index (SI) value", "setting": "A. baumannii MDR ACB; SI = IC50 (µg/mL, HK-2)/MIC (µg/mL), A. baumannii MDR ACB", "value": 88},
      {"measurement": "MIC", "setting": "K. pneumoniae KP05 506; [3]", "value": 1, "unit": "μg/mL Drug Base"},
      {"measurement": "MIC", "setting": "K. pneumoniae KP05 506; [4]", "value": 0.125, "unit": "μg/mL Drug Base"},
      {"measurement": "Selectivity index (SI) value", "setting": "K. pneumoniae KP05 506; SI = IC50 (µg/mL, HK-2)/MIC (µg/mL), K. pneumoniae KP05 506", "value": 88}
    ]}
  ]
}
